Data reported in patent US20080242698A1, “Organic Compounds” (priority 2005, published 2008).

Cl.O=C(CNCC(c1ccccc1)c1ccccc1)N1CCc2ccccc2C1
melting point: 72 to 78 °C

CC(C)N(C(=O)CNCC(c1ccccc1)c1ccccc1)c1ccccc1.Cl
melting point: 240 to 243 °C

CC(C)N(C(=O)CNCc1cccc2ccccc12)c1ccccc1.Cl
melting point: 224 to 226 °C

CC(C)N(C(=O)CNCc1ccc(Cl)c(Cl)c1)c1ccccc1.Cl
melting point: 245 to 250 °C

CS(=O)(=O)O.CS(=O)(=O)O.Clc1ccc(C(NCCNC(c2ccccc2)c2ccc(Cl)cc2)c2ccccc2)cc1 (stereo not drawn)
melting point: 233 to 235 °C

Cl.O=C(CNCC(c1ccccc1)c1ccccc1)N1c2ccccc2Oc2ccccc21
melting point: 215 to 216 °C

Cl.O=C(CNCC(c1ccccc1)c1ccccc1)n1c2ccccc2c2ccccc21
melting point: 250 °C

Cl.O=C(CNC(c1ccccc1)c1ccccc1)Nc1cccc2ccccc12
melting point: 132 to 134 °C

Cl.O=C(CNC(c1ccccc1)c1ccccc1)Nc1ccccc1-c1ccccc1
melting point: 151 to 158 °C

Cl.O=C(CNCc1ccccc1Cl)N(c1ccccc1)c1ccccc1
melting point: 213 to 214.5 °C

Cl.O=C(CNCC(c1ccccc1)c1ccccc1)N(Cc1ccccc1)c1ccccc1
melting point: 188 to 190 °C

Cl.O=C(CNCc1ccccc1Cl)N(Cc1ccccc1)c1ccccc1
melting point: 190 to 192 °C

Cl.O=C(CNC(c1ccccc1)c1ccccc1)N(Cc1ccccc1)c1ccccc1
melting point: 181 to 182 °C

Cl.O=C(CNC(c1ccccc1)c1ccccc1)N1CCCc2ccccc21
melting point: 191 to 194 °C

CC(C)N(C(=O)CNC(c1ccccc1)c1ccccc1)c1ccccc1.Cl
melting point: 241 to 243 °C

Cc1cccc2c1N(C(=O)CNCC(c1ccccc1)c1ccccc1)CCC2.Cl
melting point: 82 to 95 °C

Cc1cccc2c1N(C(=O)CNC(c1ccccc1)c1ccccc1)CCC2.Cl
melting point: 128 to 136 °C

Cl.O=C(CNCC(c1ccccc1)c1ccccc1)N(c1ccccc1)c1ccccc1
melting point: 232 to 234 °C

CC(CNCC(=O)N1CCCc2ccccc21)(c1ccccc1)c1ccccc1.Cl
melting point: 210 to 212 °C

Cl.O=C(CN1CCc2ccccc2C1)N1CCCc2ccccc21
melting point: 201 to 203 °C

Cl.O=C(CNC1CCCc2ccccc21)N1c2ccccc2C=Cc2ccccc21 (stereo not drawn)
melting point: 245 to 246 °C

Cl.O=C(CNCc1ccccc1)N(c1ccccc1)c1ccccc1
melting point: 234 to 237 °C

Cl.O=C(CNCc1cccc2ccccc12)N(c1ccccc1)c1ccccc1
melting point: 233 to 235 °C

Cl.O=C(CNCCC(c1ccccc1)c1ccccc1)N(c1ccccc1)c1ccccc1
melting point: 227 to 230 °C

Cl.O=C(CNCc1ccc(Cl)c(Cl)c1)N1c2ccccc2C=Cc2ccccc21
melting point: 244 to 249 °C

Cl.O=C(CNCCc1ccccc1)N1c2ccccc2C=Cc2ccccc21
melting point: 243 to 259 °C

Cl.O=C(CNCC(c1ccccc1)c1ccccc1)N1CCCc2ccccc21
melting point: 174 to 178 °C

CN(C(=O)CNCC(c1ccccc1)c1ccccc1)c1ccccc1.Cl
melting point: 221 to 223 °C

Cl.O=C(CNC(c1ccccc1)c1ccccc1)NCCC(c1ccccc1)c1ccccc1
melting point: 177.5 to 178.1 °C

Cl.O=C(CNC(c1ccccc1)c1ccccc1)NCc1ccccc1
melting point: 161.9 to 162.9 °C

Cl.O=C(CNC1CCc2ccccc2C1)N(c1ccccc1)c1ccccc1 (stereo not drawn)
melting point: 274 to 295 °C

Cl.NC(C(=O)NCC(=O)N(c1ccccc1)c1ccccc1)c1ccccc1 (stereo not drawn)
melting point: 177 to 185 °C (dec.)

Cl.N[C@@H](C(=O)NCC(=O)N1c2ccccc2C=Cc2ccccc21)c1ccccc1
melting point: 179 to 185 °C

Cl.N[C@H](C(=O)NCC(=O)N1c2ccccc2C=Cc2ccccc21)c1ccccc1
melting point: 192 to 233 °C

CN(C(=O)CNCc1ccc(Cl)c(Cl)c1)c1ccccc1.Cl
melting point: 221 to 224 °C

COc1ccc(CNC(C(=O)NCc2ccccc2)c2ccccc2)cc1.O=C(O)/C=C/C(=O)O (racemic)
melting point: 153 to 155 °C

CN(C)c1ccc(CNC(C(=O)NCc2ccccc2)c2ccccc2)cc1.O=C(O)/C=C/C(=O)O (racemic)
melting point: 159 to 161 °C

Cl.O=C(NCc1ccccc1)C(NC(c1ccccc1)c1ccccc1)c1ccccc1 (racemic)
melting point: 218.4 to 219.2 °C (dec.)

Cl.O=C(NCc1cccc(Cl)c1)C(NC(c1ccccc1)c1ccccc1)c1ccccc1 (racemic)
melting point: 215 to 216 °C

CC(CN(C)C)N1c2ccccc2CCc2ccccc21.Cl (racemic)
melting point: 172 to 173 °C

CC1CCc2ccccc2N1C(=O)CNCC(c1ccccc1)c1ccccc1.Cl (racemic)
melting point: 212 to 215 °C

CC(NCC(=O)N(c1ccccc1)c1ccccc1)c1ccccc1.Cl (racemic)
melting point: 232 to 236 °C

CC(NCC(c1ccccc1)c1ccccc1)C(=O)N(c1ccccc1)c1ccccc1.Cl (racemic)
melting point: 122 to 125 °C

CC(NC1Cc2ccccc2C1)C(=O)N(c1ccccc1)c1ccccc1.Cl (racemic)
melting point: 208 to 210 °C

CC(NC(c1ccccc1)c1ccccc1)C(=O)NCCC(c1ccccc1)c1ccccc1.Cl (racemic)
melting point: 210.3 to 212 °C

O=C(NCc1ccccc1)C(c1ccccc1)N(Cc1ccccc1)Cc1ccccc1 (racemic) [Example 106, rac-N-Benzyl-2-dibenzylamino-2-phenyl-acetamide]
melting point: 109 to 119.5 °C

COc1cc(CNC(C(=O)NCc2ccccc2)c2ccccc2)cc(OC)c1 (racemic) [Example 112, rac-N-Benzyl-2-(3,5-dimethoxy-benzylamino)-2-phenyl-acetamide]
melting point: 107 to 108 °C

O=C(NCC(c1ccccc1)c1ccccc1)C(Cc1ccccc1)NCc1ccccn1 (racemic) [Example 136, rac-N-(2,2-Diphenyl-ethyl)-3-phenyl-2-[(pyridin-2-ylmethyl)-amino]-propion-amide]
melting point: 68 to 70 °C

O=C(CNCc1ccccc1Cl)NC(c1ccccc1)c1ccccc1 [Example 5, N-Benzhydryl-2-(2-chloro-benzylamino)-acetamide]
melting point: 98 to 99 °C

O=C(CN1CCc2ccccc2C1)N(c1ccccc1)c1ccccc1 [Example 14, 2-(3,4-Dihydro-1H-isoquinolin-2-yl)-N,N-diphenyl-acetamide]
melting point: 202 to 204 °C

O=C(CNC(c1ccccc1)c1ccccc1)N(c1ccccc1)c1ccccc1 [Example 15, 2-(Benzhydryl-amino)-N,N-diphenyl-acetamide]
melting point: 122 to 123 °C

CN(C(=O)CNC(c1ccccc1)c1ccccc1)c1ccccc1 [Example 24, 2-(Benzhydryl-amino)-N-methyl-N-phenyl-acetamide]
melting point: 115 to 116 °C

O=C(CNC1c2ccccc2-c2ccccc21)N1CCCc2ccccc21 [Example 31, 1-(3,4-Dihydro-2H-quinolin-1-yl)-2-(9H-fluoren-9-ylamino)-ethanone]
melting point: 82 to 84 °C

O=C(NC(C(=O)NCc1ccccc1)c1ccccc1)c1ccc2cc(C(=O)O)[nH]c2c1 (stereo not drawn) [Example 117, 6-[(Benzylcarbamoyl-phenyl-methyl)-carbamoyl]-1H-indole-2-carboxylic acid]
melting point: 258 to 260 °C
